Columns and labels:
Type in all cases: cell-based, mouse
[1] = test system: B16F10 cells; assay: Cytotoxicity test (MTT); details: unit assumed
Method: In order to examine cytotoxicity of the TAT-α-tyrosinase scFv antibody, B16F10 cells, mouse-derived malignant melanoma cells, were cultured in a CO2 incubator at 37° C. After the culture, the cells were treated with the TAT-α-tyrosinase scFv antibody at different concentrations (0.1, 1, 5, 10, 50, 100 ppm), and then further cultured under the same culture conditions. After the culture, MTT{3-(4,5-Dimethylthiazol-2-yl)-2,5-Diphenyltetrazolium Bromide} solution was added and cultured. After that, the culture solution was removed, and DMSO (dimethyl sulfoxide) was added and shaken moderately.

[2] = test system: B16F10 cells; assay: Melanin production inhibitory effect test; details: 100 ppm, absorbance 475 nm
Method: To determine an inhibitory effect of the TAT-α-tyrosinase scFv antibody on melanin production in cells, B16F10 cell lines were treated with the TAT-α-tyrosinase scFv antibody and then the produced intracellular melanin content was measured. B16F10 cells, which are malignant melanoma cells, were cultured at 37° C. in the CO2 incubator. Thereafter, the cells were treated with 10 ppm of the TAT-α-tyrosinase scFv antibody and 100 ppm of arbutin as a positive control, followed by further culture under the same culture conditions. After the culture, each well was washed with PBS and 130 ul of 1 N NaOH solution was added to dissolve it at 60° C. for 1 hour.

[3] = test system: B16F10 cells; assay: Reactive oxygen species inhibitory effect test
Method: In order to determine the inhibitory effect of the TAT-α-tyrosinase scFv antibody on reactive oxygen species in cells, the B16F10 cell lines were treated with the TAT-α-tyrosinase scFv antibody, and then the content of intracellular reactive oxygen species was measured using fluorescence staining. B16F10 cells, which are malignant melanoma cells, were cultured in the CO2 incubator at 37° C. Thereafter, the cells were treated with 100 ppm of the TAT-α-tyrosinase scFv antibody and 100 ppm of arbutin as a positive control, and then further cultured under the same culture conditions. After the culture, 0.2 mM hydrogen peroxide was added to each well, and then cultured for 2 hours. Carboxy-H2DCF-DA was added and reaction was carried out at 37° C. for 30 minutes. After washing with PBS, fluorescence was measured with the ELISA Reader system at 475/535 nm by re-addition of PBS, and the values are shown in Table 4.

## OC[C@H]1O[C@@H](Oc2ccc(O)cc2)[C@H](O)[C@@H](O)[C@@H]1O [Arbutin]
[1]; 0.1 ppm
  Cell viability (MTT, absorbance at 570 nm), Average: 97.6%
[1]; 1 ppm
  Cell viability (MTT, absorbance at 570 nm), Average: 97%
[1]; 5 ppm
  Cell viability (MTT, absorbance at 570 nm), Average: 83.5%
[1]; 10 ppm
  Cell viability (MTT, absorbance at 570 nm), Average: 89.3%
[1]; 50 ppm
  Cell viability (MTT, absorbance at 570 nm), Average: 82.4%
[1]; 100 ppm
  Cell viability (MTT, absorbance at 570 nm), Average: 57.7%
[2]
  Melanin biosynthesis amount (% of control), Average: 66.1 % of control
[3]; 0.2 mM H2O2, 100 ppm
  ROS (fold of control), Average: 1.29 fold of control
[3]; non treat control (no H2O2), 100 ppm
  ROS (fold of control), Average: 0.82 fold of control

— patent US12331135B2, “Anti-tyrosinase antibody for inhibiting tyrosinase and use thereof” (HAUUL BIO, priority 2019, dated 2025)
